Results published in patent US6875451B2, “Compositions and methods for the treatment of primary and metastatic neoplastic diseases using arsenic compounds” (PolaRx Biopharmaceuticals Inc., priority 1997, dated 2005).

What was measured:
Assay type in all cases: cell-based
COLO 205 = assay: SRB growth assay, 2 days exposure, colon cancer
Experimental: (§1) Arsenic trioxide (1 mg/ml, 10 mg/ampoule, manufactured by Taylor Pharmaceuticals, Decatur, Ill.) was tested at five concentrations each at 10-fold dilutions, i.e., 10^−5, 10^−6, 10^−7, 10^−8 and 10^−9 μg/ml.
(§2) The in vitro tests were performed by incubating the test cells in the presence of the indicated concentration of arsenic trioxide under standard culture conditions for a designated period of time, which is followed by a sulforhodamine B (SRB) protein assay to estimate cell viability or growth. The cell lines are organized into subpanels according to the origin of the cell lines, e.g., leukemia, breast cancer, etc. A description of the cell lines and method of testing is described in Monk et al. (1997, Anticancer Drug Des. 12:533-41) and Weinstein et al., (1997, Science 275:343-9), which are incorporated herein in their entirety.
(§3) The measurement of an effect is expressed in Percentage Growth (PG). The measured effect of the compound on a cell line is calculated according to one or the other of the following two expressions: If (Mean ODtest−Mean ODzero)≧0. then PG=100×(Mean ODtest−Mean ODzero)/(Mean ODctrl−Mean ODzero) If (Mean ODtest−Mean ODzero)<0. then PG=100×(Mean ODtest−Mean ODzero)/(Mean ODzero where: • Mean ODzero=the average of optical density measurements of SRB-derived color just before exposure of cells to the test compounds; • Mean ODtest=the average of optical density measurements of SRB-derived color after exposure of cells to the test compound for a designated period of time; and • Mean ODctrl=the average of optical density measurements of SRB-derived color after with no exposure of cells to the test compound for a designated period of time
(§4) The first two columns describe the subpanel (e.g., leukemia) and cell line (e.g., CCRF-CEM) involved. The next two columns list the Mean ODzero and Mean ODctrl; the next five columns list the Mean ODtest for each of five different concentrations. Each concentration is expressed as the log10 (molar or μg/ml). The next five columns list the calculated PGs for each concentration. The response parameters GI50, TGI and LC50 are interpolated values representing the concentrations at which the PG is +50, 0, and −50, respectively. Sometimes these response parameters cannot be obtained by interpolation. If, for instance, all of the PGs in a given row exceed +50, then none of the three parameters can be obtained by interpolation. In such a case, the value given for each response parameter is the highest concentration tested and is preceded by a “>” sign. This practice is extended similarly to the other possible situations where a response parameter cannot be obtained by interpolation.
(§5) In the first set, the cells from 56 different cancer cell lines were exposed to five concentrations of arsenic trioxide continuously for two days prior to performing the SRB assay. In the second set, the cells from 50 different cell lines (a subset of the first 56 cell lines, plus the renal cancer cell line 786-0) were exposed continuously for six days prior to the SRB assay.

HCT-116 = assay: SRB growth assay, 2 days exposure, colon cancer
Experimental: as §1, §2, §3, §4, §5

HCT-15 = assay: SRB growth assay, 2 days exposure, colon cancer
Experimental: as §1, §2, §3, §4, §5

HT29 = assay: SRB growth assay, 2 days exposure, colon cancer
Experimental: as §1, §2, §3, §4, §5

KM12 = assay: SRB growth assay, 2 days exposure, colon cancer
Experimental: as §1, §2, §3, §4, §5

SW-620 = assay: SRB growth assay, 2 days exposure, colon cancer
Experimental: as §1, §2, §3, §4, §5

SK-MEL-28 = assay: SRB growth assay, 2 days exposure, melanoma
Experimental: as §1, §2, §3, §4, §5

SK-MEL-2 = assay: SRB growth assay, 2 days exposure, melanoma
Experimental: as §1, §2, §3, §4, §5

UACC-62 = assay: SRB growth assay, 2 days exposure, melanoma
Experimental: as §1, §2, §3, §4, §5

DU-145 = assay: SRB growth assay, 6 days exposure, prostate cancer; conditions: DU-145, 6 days
Experimental: as §1, §2, §3, §4, §5

arsenic trioxide
TGI (COLO 205): >0.0126 ng/mL | Percent Growth (COLO 205; log10 conc −4.9): 57% | Percent Growth (COLO 205; log10 conc −5.9): 104% | Percent Growth (COLO 205; log10 conc −6.9): 117% | Percent Growth (COLO 205; log10 conc −7.9): 102% | Percent Growth (COLO 205; log10 conc −8.9): 103% | TGI (HCT-116): >0.0126 ng/mL | Percent Growth (HCT-116; log10 conc −4.9): 30% | Percent Growth (HCT-116; log10 conc −5.9): 86% | Percent Growth (HCT-116; log10 conc −6.9): 93% | Percent Growth (HCT-116; log10 conc −7.9): 93% | Percent Growth (HCT-116; log10 conc −8.9): 95% | TGI (HCT-15): >0.0126 ng/mL | Percent Growth (HCT-15; log10 conc −4.9): 20% | Percent Growth (HCT-15; log10 conc −5.9): 93% | Percent Growth (HCT-15; log10 conc −6.9): 104% | Percent Growth (HCT-15; log10 conc −7.9): 100% | Percent Growth (HCT-15; log10 conc −8.9): 113% | TGI (HT29): >0.0126 ng/mL | Percent Growth (HT29; log10 conc −4.9): 15% | Percent Growth (HT29; log10 conc −5.9): 80% | Percent Growth (HT29; log10 conc −6.9): 100% | Percent Growth (HT29; log10 conc −7.9): 104% | Percent Growth (HT29; log10 conc −8.9): 112% | TGI (KM12): >0.0126 ng/mL | Percent Growth (KM12; log10 conc −4.9): 68% | Percent Growth (KM12; log10 conc −5.9): 99% | Percent Growth (KM12; log10 conc −6.9): 106% | Percent Growth (KM12; log10 conc −7.9): 98% | Percent Growth (KM12; log10 conc −8.9): 101% | TGI (SW-620): >0.0126 ng/mL | Percent Growth (SW-620; log10 conc −4.9): 16% | Percent Growth (SW-620; log10 conc −5.9): 85% | Percent Growth (SW-620; log10 conc −6.9): 96% | Percent Growth (SW-620; log10 conc −7.9): 98% | Percent Growth (SW-620; log10 conc −8.9): 102% | TGI (SK-MEL-28): >0.0126 ng/mL | Percent Growth (SK-MEL-28; log10 conc −4.9): 6% | Percent Growth (SK-MEL-28; log10 conc −5.9): 94% | Percent Growth (SK-MEL-28; log10 conc −6.9): 101% | Percent Growth (SK-MEL-28; log10 conc −7.9): 103% | Percent Growth (SK-MEL-28; log10 conc −8.9): 100% | TGI (SK-MEL-2): 0.00881 ng/mL | Percent Growth (SK-MEL-2; log10 conc −4.9): −17% | Percent Growth (SK-MEL-2; log10 conc −5.9): 91% | Percent Growth (SK-MEL-2; log10 conc −6.9): 110% | Percent Growth (SK-MEL-2; log10 conc −7.9): 103% | Percent Growth (SK-MEL-2; log10 conc −8.9): 113% | TGI (UACC-62): >0.0126 ng/mL | Percent Growth (UACC-62; log10 conc −4.9): 6% | Percent Growth (UACC-62; log10 conc −5.9): 96% | Percent Growth (UACC-62; log10 conc −6.9): 103% | Percent Growth (UACC-62; log10 conc −7.9): 103% | Percent Growth (UACC-62; log10 conc −8.9): 104% | TGI (DU-145): 6.32E−06 | Mean Optical Densities (DU-145; Log 10 Concentration −4.9): 0.055 | Percent Growth (DU-145; Log 10 Concentration −4.9): −43% | Mean Optical Densities (DU-145; Log 10 Concentration −5.9): 2.153 | Percent Growth (DU-145; Log 10 Concentration −5.9): 100% | Mean Optical Densities (DU-145; Log 10 Concentration −6.9): 1.935 | Percent Growth (DU-145; Log 10 Concentration −6.9): 89% | Mean Optical Densities (DU-145; Log 10 Concentration −7.9): 1.954 | Percent Growth (DU-145; Log 10 Concentration −7.9): 90% | Mean Optical Densities (DU-145; Log 10 Concentration −8.9): 2.147 | Percent Growth (DU-145; Log 10 Concentration −8.9): 99% | CC50 (DU-145; read-out: LC50 (the source's name)): > 12.6 µM
